From ChEMBL document CHEMBL1641403, “Scytonemides A and B, cyclic peptides with 20S proteasome inhibitory activity from the cultured cyanobacterium Scytonema hofmanii” (J Nat Prod, 2010)

Tests used:
HT-29 [1] = test: Inhibition of 20S proteasome in human HT-29 cells; format: cell-based
HT-29 [2] = test: Cytotoxicity against human HT-29 cells; format: cell-based
HT-29 [3] = test: Inhibition of 20S proteasome in human HT-29 cells at 6.7 uM by luminescence-based assay; format: cell-based
[4] = Chemical stability of the compound; format: physicochemical
[5] = Metabolic stability of the compound in human HT-29 cells; format: ADME, cell-based; details: read-out: Stability (converted)
[6] = Inhibition of human 20S proteasome

Stability [4] | half-life [5] | IC50 [6] | Compound | ED50 (HT-29 [1]) | Activity (HT-29 [2]) | inhibition (HT-29 [3])
3 days | 120 min |  | CC[C@H](C)[C@H]1NC(=O)[C@@H](CCC(N)=O)NC(=O)CNC(=O)[C@H](Cc2ccc(O)cc2)/N=C/[C@H](CC(C)C)NC(=O)[C@H](C(C)C)NC(=O)[C@H](CO)NC1=O [SCYTONEMIDES A] | > 20 µg/mL | Non-toxic | 80%
 |  | > 50 µM | CCCCC[C@H]1CC(=O)N[C@@H](CO)C(=O)N[C@@H](Cc2ccccc2)C(=O)N[C@@H](Cc2ccc(O)cc2)C(=O)N[C@H](CCCNC(N)=O)C(=O)N[C@@H](CC(=O)O)C(=O)O1 [scytonemides B] |  |  | 
